{"source": "patent US5093505A", "about": "“Novel heterocyclic compound, carcinostatic agent, and carcinoma controlling method” (Wakunaga Seiyaku Kabushiki Kaisha, priority 1989, dated 1992)", "key": {"[1]": {"tested_on": "HeLa cells", "assay": "Anti-carcinogenesis-promoter action: inhibition of TPA-promoted phospholipid synthesis (32Pi uptake) in HeLa cells", "assay_type": "cell-based", "settings": "Homo sapiens, read-out: Inhibition (%) of cell phospholipid synthesis promotion by TPA", "description": "A sample (50 μg/ml) was added to HeLa cells on the second day of cultivation. After 24 hours, TPA (5×10^-8 M) and ^32 Pi (50 μci/culture) were added at the same time. After 4 hours, a phospholipid fraction was extracted to determine the radioactivity of ^32 Pi taken in the fraction."}, "[2]": {"assay": "Solubility of compound (1)", "assay_type": "physicochemical"}, "[3]": {"tested_on": "mouse skin two-stage carcinogenesis", "assay": "Inhibition of promotion stage of mouse skin in vivo two-stage carcinogenesis (DMBA/TPA)", "set-up": "species or system ICR female mice", "settings": "1 mg applied, twice a week, 1 μg TPA", "description": "A compound was examined whether it could inhibit the promotion stage of mouse skin in vivo two-stage carcinogenesis. More particularly, a group of 15 ICR female mice was tested by once applying 100 μg of DMBA as an initiator to the skin of each mouse for initiation of carcinogenesis and then applying a test solution (identified below) twice a week. Inhibition of carcinogenesis was examined during the test which continued for 18 weeks in total. The promoter used was TPA.\n1 mg of compound (1) applied"}, "[4]": {"assay": "in vivo", "set-up": "species or system rats", "settings": "rat, po"}, "[5]": {"tested_on": "gastric carcinoma cells HGC-27", "assay": "Inhibition against gastric carcinoma cells with time", "assay_type": "cell-based", "settings": "25 μg/ml, number of cells with time", "description": "In a dish having a diameter of 3.5 cm, about 2×10^4 gastric carcinoma cells HGC-27 were spread and cultured. After one day, compound (1) was added to the culture in a concentration of 25 μg/ml and the number of cells was counted with the lapse of time. The results are shown in FIG. 5 in which the number of cells is plotted relative to the culturing time."}, "[6]": {"tested_on": "gastric carcinoma cells HGC-27", "assay": "Inhibition against gastric carcinoma cells in varying concentrations", "assay_type": "cell-based", "settings": "two days", "description": "In a dish having a diameter of 3.5 cm, about 2×10^5 gastric carcinoma cells HGC-27 were spread and cultured. After one day, compound (1) was added to the culture in varying concentrations of 5, 10, 25, 50, and 75 μg/ml. The number of cells was counted after two days. The results are shown in FIG. 6 in which the number of cells is plotted relative to the concentration of compound (1)."}, "[7]": {"tested_on": "pancreatic carcinoma cells PANC-1", "assay": "Inhibition against other carcinoma cells: PANC-1", "assay_type": "cell-based, human", "settings": "PANC-1, 50 μg/ml", "description": "(§1) Tested were three types of human carcinoma cells, pancreatic carcinoma cells PANC-1, cervical carcinoma cells HeLa, and neuroblastoma cells GOTO. For each type, about 2×10^5 cells were spread and cultured in a dish having a diameter of 3.5 cm. After one day, compound (1) was added to the culture in a concentration of 50 μg/ml. The number of cells was counted after two days."}, "[8]": {"assay": "in vivo", "set-up": "species or system mice", "settings": "mouse, po"}, "[9]": {"tested_on": "neuroblastoma cells GOTO", "assay": "Inhibition against other carcinoma cells: GOTO", "assay_type": "cell-based, human", "settings": "50 μg/ml", "description": "as §1"}, "[10]": {"tested_on": "cervical carcinoma cells HeLa", "assay": "Inhibition against other carcinoma cells: HeLa", "assay_type": "cell-based, human", "settings": "50 μg/ml", "description": "as §1"}, "[11]": {"settings": "sample 50 μg/ml, TPA 5×10^-8 M, HeLa cells"}, "[12]": {"settings": "Homo sapiens, 48 h, two days, read-out: Number of cells, Test group/Control"}}, "note": "Like-named read-outs stand apart in the source and are kept apart here."}
{"smiles": "O=c1cc(C=Cc2ccc(Cl)cc2)occ1O", "note": "[Compound (12), 3-hydroxy-6-(p-chlorostyryl)-4H-pyran-4-one]", "values": [{"measurement": "inhibition at 50 µg/mL", "setting": "[1]; [11]", "value": 90, "unit": "%"}]}
{"smiles": "CCCCCc1oc(C)c(OC)c(=S)c1O", "note": "[Compound (3), 3-hydroxy-6-methyl-5-methoxy-2-pentyl-4H-pyran-4-thione]", "values": [{"measurement": "inhibition at 50 µg/mL", "setting": "[1]; [11]", "value": 75, "unit": "%"}]}
{"smiles": "COc1ccc(C=Cc2cc(=O)c(O)co2)cc1", "note": "[Compound (11), 3-hydroxy-6-(p-methoxystyryl)-4H-pyran-4-one]", "values": [{"measurement": "inhibition at 50 µg/mL", "setting": "[1]; [11]", "value": 72.2, "unit": "%"}]}
{"smiles": "CCCCCC1=NC(C)=C(OC)C(=O)C1O", "note": "(stereo not drawn) [Compound (4), 3-hydroxy-6-methyl-5-methoxy 2-pentyl-4-pyridone]", "values": [{"measurement": "inhibition at 50 µg/mL", "setting": "[1]; [11]", "value": 51.2, "unit": "%"}]}
{"smiles": "CCCCCc1c(O)c(=O)c(OC)c(C)n1C", "note": "[Compound (5), 3-hydroxy-1,6-dimethyl-5-methoxy 2-pentyl-4-pyridone]", "values": [{"measurement": "inhibition at 50 µg/mL", "setting": "[1]; [11]", "value": 24.9, "unit": "%"}]}
{"smiles": "CCCCCc1oc(C)c(OC)c(=O)c1O", "note": "[Compound (1), 3-hydroxy-6-methyl-5-methoxy-2-pentyl-4H-pyran-4-one]", "values": [{"measurement": "solubility in organic solvents", "setting": "[2]; methanol, acetone, chloroform, hexane, and ethyl acetate", "value": "soluble"}, {"measurement": "solubility in water", "setting": "[2]; water", "value": "difficultly soluble"}, {"measurement": "average number of carcinomas per mouse", "setting": "[3]; 18th week (control 2.38)", "value": 0.22}, {"measurement": "percentage of mice in which carcinomas developed", "setting": "[3]; 18th week (control 50%)", "value": 13, "unit": "%"}, {"measurement": "inhibition at 50 µg/mL", "setting": "[1]; [11]", "value": 83, "unit": "%"}, {"measurement": "LD50", "setting": "[4]", "value": "≥ 1000", "unit": "mg/kg"}, {"measurement": "inhibition of propagation of gastric carcinoma cells HGC-27", "setting": "[5]", "value": "fully effective in inhibiting the propagation"}, {"measurement": "concentration dependence of inhibitory effect on gastric carcinoma cells HGC-27", "setting": "[6]; 5, 10, 25, 50, and 75 μg/ml", "value": "dependent on its concentration or dose"}, {"measurement": "minimal effective concentration", "setting": "[6]; Homo sapiens, HGC-27, 48 h, 5 to 75 μg/ml, read-out: concentration with significant inhibitory effect on gastric carcinoma cells HGC-27", "value": "≤ 5", "unit": "µg/mL"}, {"measurement": "activity at 50 µg/mL", "setting": "[7]; [12]", "value": 27.3, "unit": "%"}, {"measurement": "Number of cells (×10^5), Test group", "setting": "[7]; two days (control 8.95)", "value": "2.45 ×10^5"}, {"measurement": "LD50", "setting": "[8]", "value": "≥ 1000", "unit": "mg/kg"}, {"measurement": "Number of cells (×10^5), Test group", "setting": "[9]; two days (control 10.95)", "value": "4.85 ×10^5"}, {"measurement": "activity at 50 µg/mL", "setting": "[9]; Homo sapiens, Neuroblastoma cell, 48 h, two days, read-out: Number of cells, Test group/Control", "value": 44.3, "unit": "%"}, {"measurement": "Number of cells (×10^5), Test group", "setting": "[10]; two days (control 11.20)", "value": "4.70 ×10^5"}, {"measurement": "activity at 50 µg/mL", "setting": "[10]; [12]", "value": 42, "unit": "%"}]}
{"smiles": "O=c1cc(CO)occ1O", "note": "[Compound (13), 5-hydroxy-2-hydroxymethyl-4H-pyran-4-one]", "values": [{"measurement": "inhibition at 50 µg/mL", "setting": "[1]", "value": 1.6, "unit": "%"}]}
{"smiles": "CCCCCc1c(O)c(=S)c(OC)c(C)n1C", "note": "[Compound (7), 3-hydroxy-1,6-dimethyl-5-methoxy-2-pentyl 4-pyridinethione]", "values": [{"measurement": "inhibition at 50 µg/mL", "setting": "[1]; [11]", "value": 70.6, "unit": "%"}]}
{"smiles": "CCCCCc1oc(C)c(OC)c(=O)c1OC", "note": "[Compound (2), 6-methyl-3,5-dimethoxy-2-pentyl-4H-pyran-4-one]", "values": [{"measurement": "inhibition at 50 µg/mL", "setting": "[1]; [11]", "value": 65.3, "unit": "%"}]}
{"smiles": "Cc1occc(=S)c1O", "note": "[Compound (9), 3-hydroxy-2-methyl-4H-pyran-4-thione]", "values": [{"measurement": "inhibition at 50 µg/mL", "setting": "[1]; [11]", "value": 0, "unit": "%"}]}
{"smiles": "O=c1cc(C=Cc2ccccc2)occ1O", "note": "[Compound (10), 3-hydroxy-6-styryl-4H-pyran-4-one]", "values": [{"measurement": "inhibition at 50 µg/mL", "setting": "[1]; [11]", "value": 59.3, "unit": "%"}]}
{"smiles": "Cc1occc(=O)c1O", "note": "[Compound (8), 3-hydroxy-2-methyl 4H-pyran-4-one]", "values": [{"measurement": "inhibition at 50 µg/mL", "setting": "[1]; [11]", "value": 3.1, "unit": "%"}]}
